How the values were obtained:
[1] = biological target: T1, c-kit kinase (Homo sapiens, UniProt P10721); assay: c-Kit biochemical assay, AlphaScreen, 10 μM ATP; details: c-kit biochemical inhibitory activity; read-out: Biochemical activity (IC50 μM) Kit
T1 construct: The c-kit (or kinase domain thereof) is an active kinase in AlphaScreen; poly-Histidine tag (in-house protein only) (cleaved yes); host or cells: E. coli BL21(DE3)RIL, co-expressed with PTP1B
Procedure, shortened: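 His-tagged c-Kit expressed in E. coli with co-expressed PTP1B (dephosphorylated), tag removed; 0.1 ng per reaction with biotinylated-peptide substrate in 50 mM HEPES pH 7.2, 5 mM MgCl2, 5 mM MnCl2, 5% DMSO, 10 μM ATP, 1 h at room temperature. Phosphorylation detected by AlphaScreen (streptavidin donor, PY20 acceptor beads); IC50 from 8-point 1:3 dilution series.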

[2] = biological target: T2, c-kit mutant D816V (Homo sapiens, UniProt P10721, D816V/DEL694-753); assay: c-Kit mutant D816V biochemical assay, AlphaScreen; details: c-kit D816V biochemical inhibitory activity; read-out: Biochemical activity (IC50 μM) Kit D816V
T2 construct: residues 551-934, kinase insertion domain residues 694-753 deleted; 6x-histidine (N); made in house; host or cells: E. coli Arctic Express (DE3) RIL (Stratagene)
T2 sequence (P10721 with tags, fused parts or gaps DEL694-753/D816V): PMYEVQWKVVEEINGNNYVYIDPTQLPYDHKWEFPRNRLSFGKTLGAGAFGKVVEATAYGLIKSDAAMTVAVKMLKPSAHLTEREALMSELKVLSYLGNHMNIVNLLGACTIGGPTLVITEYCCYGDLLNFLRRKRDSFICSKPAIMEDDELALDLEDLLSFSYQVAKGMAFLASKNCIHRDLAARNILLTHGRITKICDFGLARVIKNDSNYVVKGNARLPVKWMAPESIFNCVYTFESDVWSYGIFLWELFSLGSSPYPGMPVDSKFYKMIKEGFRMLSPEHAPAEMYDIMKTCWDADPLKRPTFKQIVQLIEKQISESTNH
Procedure, shortened: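 Eight-point, threefold compound series incubated 30 min at room temperature with E. coli-produced D816V kinase, 10 μM ATP, Mg2+/Mn2+ HEPES buffer pH 7.2 and 5% DMSO. After EDTA stop, streptavidin and anti-phosphotyrosine (PY20) AlphaScreen beads gave the read-out, and IC50 was fitted from the concentration–signal curve.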

T1 sequence (P10721 26-976): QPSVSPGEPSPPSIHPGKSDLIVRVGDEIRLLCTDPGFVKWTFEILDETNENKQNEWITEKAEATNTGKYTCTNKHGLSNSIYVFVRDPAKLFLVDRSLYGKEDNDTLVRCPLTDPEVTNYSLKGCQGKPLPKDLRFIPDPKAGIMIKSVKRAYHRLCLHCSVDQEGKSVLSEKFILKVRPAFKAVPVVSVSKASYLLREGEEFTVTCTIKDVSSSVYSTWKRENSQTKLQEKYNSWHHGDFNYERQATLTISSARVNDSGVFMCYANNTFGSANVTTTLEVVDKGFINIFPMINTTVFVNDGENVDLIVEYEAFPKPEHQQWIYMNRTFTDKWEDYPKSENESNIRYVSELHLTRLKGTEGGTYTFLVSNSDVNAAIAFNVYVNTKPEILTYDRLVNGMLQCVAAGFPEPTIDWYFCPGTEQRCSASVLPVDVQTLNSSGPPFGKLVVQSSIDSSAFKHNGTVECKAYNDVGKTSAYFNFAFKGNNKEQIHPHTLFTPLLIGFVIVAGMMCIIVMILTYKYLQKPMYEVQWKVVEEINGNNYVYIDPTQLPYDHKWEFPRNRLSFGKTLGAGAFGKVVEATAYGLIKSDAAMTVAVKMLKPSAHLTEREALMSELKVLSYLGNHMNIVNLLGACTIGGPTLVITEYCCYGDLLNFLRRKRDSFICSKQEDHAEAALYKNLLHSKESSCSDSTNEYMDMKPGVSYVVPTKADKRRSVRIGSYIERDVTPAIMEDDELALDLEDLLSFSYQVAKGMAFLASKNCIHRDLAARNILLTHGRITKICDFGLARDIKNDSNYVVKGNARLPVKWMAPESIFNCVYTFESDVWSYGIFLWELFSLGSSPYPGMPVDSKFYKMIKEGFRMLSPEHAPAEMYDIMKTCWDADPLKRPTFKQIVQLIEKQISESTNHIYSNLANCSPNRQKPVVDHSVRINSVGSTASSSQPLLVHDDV

Structure (SMILES)	IC50 [1] [µM]	IC50 [2] [µM]
Cc1ccc(S(=O)(=O)NC2CCN(c3ncnc4[nH]c(-c5cnn(C)c5)cc34)CC2)s1 [P-0454, 5-methyl-N-[1-[6-(1-methylpyrazol-4-yl)-7H-pyrrolo[2,3-d]pyrimidin-4-yl]-4-piperidyl]thiophene-2-sulfonamide]	10 to 200	0.0001 to 1
Cc1ccc2sc(S(=O)(=O)NC3CCN(c4ncnc5[nH]c(-c6cnn(C)c6)cc45)CC3)cc2c1 [P-0455, 5-methyl-N-[1-[6-(1-methylpyrazol-4-yl)-7H-pyrrolo[2,3-d]pyrimidin-4-yl]-4-piperidyl]benzothiophene-2-sulfonamide]	1 to 10	0.0001 to 1
Cn1cc(-c2cc3c(N4CCC(NS(=O)(=O)c5ccc6c(c5)CCO6)CC4)ncnc3[nH]2)cn1 [P-0457, N-[1-[6-(1-methylpyrazol-4-yl)-7H-pyrrolo[2,3-d]pyrimidin-4-yl]-4-piperidyl]-2,3-dihydrobenzofuran-5-sulfonamide]	10 to 200	0.0001 to 1
Cn1cc(-c2cc3c(N4CCC(NS(=O)(=O)c5ccc(Cl)s5)CC4)ncnc3[nH]2)cn1 [P-0458, 5-chloro-N-[1-[6-(1-methylpyrazol-4-yl)-7H-pyrrolo[2,3-d]pyrimidin-4-yl]-4-piperidyl]thiophene-2-sulfonamide]	10 to 200	0.0001 to 1
COc1cc(-c2cc3c(N4CCC(NS(=O)(=O)c5ccc(OC(F)(F)F)cc5)CC4)ncnc3[nH]2)ccn1 [P-0460, N-[1-[6-(2-methoxy-4-pyridyl)-7H-pyrrolo[2,3-d]pyrimidin-4-yl]-4-piperidyl]-4-(trifluoromethoxy)benzenesulfonamide]	10 to 200	10 to 200
Cn1cc(-c2cc3c(N4CCC(NS(=O)(=O)c5cc(Cl)c(Cl)s5)CC4)ncnc3[nH]2)cn1 [P-0461, 4,5-dichloro-N-[1-[6-(1-methylpyrazol-4-yl)-7H-pyrrolo[2,3-d]pyrimidin-4-yl]-4-piperidyl]thiophene-2-sulfonamide]	1 to 10	0.0001 to 1
Cn1cc(-c2cc3c(N4CCC(NS(=O)(=O)c5cc(Cl)cs5)CC4)ncnc3[nH]2)cn1 [P-0462, 4-chloro-N-[1-[6-(1-methylpyrazol-4-yl)-7H-pyrrolo[2,3-d]pyrimidin-4-yl]-4-piperidyl]thiophene-2-sulfonamide]	1 to 10	0.0001 to 1
COc1ncc(-c2cc3c(N4CCC(NS(=O)(=O)c5ccc(OC(F)(F)F)cc5)CC4)ncnc3[nH]2)cn1 [P-0465, N-[1-[6-(2-methoxypyrimidin-5-yl)-7H-pyrrolo[2,3-d]pyrimidin-4-yl]-4-piperidyl]-4-(trifluoromethoxy)benzenesulfonamide]	10 to 200	10 to 200
Cn1cc(-c2cc3c(N4CCC(NS(=O)(=O)c5cc6ccccc6s5)CC4)ncnc3[nH]2)cn1 [P-0470, N-[1-[6-(1-methylpyrazol-4-yl)-7H-pyrrolo[2,3-d]pyrimidin-4-yl]-4-piperidyl]benzothiophene-2-sulfonamide]	0.0001 to 1	0.0001 to 1
Cn1cc(-c2cc3c(N4CCC(NS(=O)(=O)c5ccc(C6(C#N)CC6)cc5)CC4)ncnc3[nH]2)cn1 [P-0486, 4-(1-cyanocyclopropyl)-N-[1-[6-(1-methylpyrazol-4-yl)-7H-pyrrolo[2,3-d]pyrimidin-4-yl]-4-piperidyl]benzenesulfonamide]	1 to 10	1 to 10
CC(C)Oc1ccc(S(=O)(=O)NC2CCN(c3ncnc4[nH]c(-c5cnn(C)c5)cc34)CC2)cc1 [P-0488, 4-isopropoxy-N-[1-[6-(1-methylpyrazol-4-yl)-7H-pyrrolo[2,3-d]pyrimidin-4-yl]-4-piperidyl]benzenesulfonamide]	0.0001 to 1	0.0001 to 1
Cn1cc(-c2cc3c(N4CCC(NS(=O)(=O)c5ccc(Cl)cc5)CC4)ncnc3[nH]2)cn1 [P-0491, 4-chloro-N-[1-[6-(1-methylpyrazol-4-yl)-7H-pyrrolo[2,3-d]pyrimidin-4-yl]-4-piperidyl]benzenesulfonamide]	1 to 10	0.0001 to 1

Source: patent US10227357B2, “Compounds and methods for kinase modulation, and indications therefor” (Plexxikon Inc., priority 2012, dated 2019)
